Results reported in PubChem BioAssay AID493130 (Broad Institute, 2011).
Inconclusive results are not listed. Activity calls are given as the source filed them.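 The calls were made as follows: active = signal-lowering compounds whose fitted half-maximal concentration is at most ten times their highest tested dose; inconclusive = flat fit between -30 and -70%, or poor fit; inactive = flat within 30%, signal rising, or potency beyond limit.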

These molecules were tested against POS-1 (Caenorhabditis elegans) binding to mex-3 RNA (assay: C. elegans POS-1 RNA interaction disruptors – biochemical, fluorescence polarization, cherry-picked samples, set 2, counter-screen for MEX-5 RNA-binding inhibitor project, dose response (AID 493130;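 also: POS-1 as maltose binding protein fusion made in E. coli with FITC RNA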)). Details: POS-1/mex-3 RNA fluorescence polarization, 1 h.

SMILES	AC50
CN(CCC#N)C(=O)COC(=O)c1c2c(nc3ccccc13)/C(=C/c1ccco1)CC2	> 10 µM (inactive)
COc1ccc(/C(O)=C/c2nc3ccccc3n(-c3ccccc3)c2=O)cc1	3.23 µM
O=C1CSC(=S)N1/N=C/c1cc(Br)c(O)c(Br)c1	10.2 µM
Cc1cc(-c2csc(N)n2)c(C)n1C	8.77 µM
N#CC1(C#N)C(c2ccccc2)OC23CCCCC2C1(C#N)C(=N)O3 (stereo unspecified)	4.61 µM
O=[N+]([O-])c1ccccc1NC(=S)N/N=C/c1ccc(O)c(O)c1	5.42 µM
COc1ccc(-c2onc3ccc(C(C)=O)cc23)cc1	< 0.08 µM
O=C(c1ccc(Cl)cc1)C1C2C(=O)N(c3ccccc3)C(=O)C2C2CCCN21 (stereo unspecified)	5.95 µM
O=c1[nH]n2c(=O)c3c([nH]c2c1N=Nc1ccccc1)CCC3	0.677 µM
Cc1cc(C)c2c(c1)NC(C(=O)O)C1CC=CC21 (stereo unspecified)	6.96 µM
COCCCNC(=O)c1ccc2c3c(onc13)-c1ccccc1C2=O	0.186 µM
CCc1ccc[n+](-c2[nH]c(=O)sc2/C=N/NC([S-])=Nc2ccccc2)c1	2.54 µM
O=C(N/N=C/C1C(=O)NC(=S)N(c2ccccc2)C1=O)c1cc(Br)c(O)c(Br)c1 (stereo unspecified)	7.64 µM
Nc1nnc(CC(=O)N/N=C/c2cc([N+](=O)[O-])cc(Br)c2O)s1	6.03 µM

Same assay, conditions: POS-1/mex-3 RNA fluorescence polarization, 1 h; at 10 µM (top of the series)

SMILES	activity change, negative = inhibition
CC(C)(C)N(CC#CCC(O)(c1ccccc1)c1ccccc1)CCO	inactive
O=c1oc2cc([N+](=O)[O-])ccc2nc1/C=C(\O)c1cccc(Br)c1	inactive
CC1CN(Cc2c(O)ccc3c2oc(=O)c2ccccc23)CC(C)O1 (stereo unspecified)	inactive
CC(C)c1ccc(N2C(=O)/C(=C/N(C)C)SC2=S)cc1	inactive
Cc1nn(C(C)C(=O)NNC(=S)Nc2ccc(Cl)cc2)c(C)c1[N+](=O)[O-] (stereo unspecified)	inactive
CC(=O)NN1C(=O)/C(=C2/Sc3ccccc3N2C)SC1=S	inactive
CC(=Nc1ccc(C)cc1)c1sc2ccccc2c1O	inactive
Cc1c(C#N)c(O)n(CCO)c(=O)c1N=Nc1ccccc1	inactive
COC(=O)c1cccc(-c2ccc(C(c3c(C)[nH][nH]c3=O)c3c(C)[nH][nH]c3=O)o2)c1	inactive
COc1ccc2c(c1)-c1ccccc1S(=O)(=O)N2C(C)=O	inactive
CCCCN(C(=O)c1ccc(C)o1)c1c(N)n(CCCC)c(=O)[nH]c1=O	inactive
COc1ccc2ccccc2c1CNCc1ccccn1	inactive
Cc1cc(C(=O)N/N=C/c2ccc(-c3ccc([N+](=O)[O-])cc3Cl)o2)n[nH]1	inactive
COc1ccc(CCn2c(=N)c(C(=O)NCC3CCCO3)cc3c(=O)n4cccc(C)c4nc32)cc1 (stereo unspecified)	inactive
Oc1ccc(/C=N/Nc2ccc(Cl)nn2)c(O)c1O	inactive
O=C(NNC(=O)c1ccccc1Cl)c1csc(N2CCOCC2)n1	inactive
O=C(NNc1ncnc2c1cnn2-c1ccc(F)cc1)c1ccco1	inactive
CSc1nsc2nc(=O)c(/C=C3\C(C)=Nc4ccc(C)cc43)c(N)n12	inactive
COc1ccc(N(CCC#N)C(=O)/C(C#N)=C\c2cccs2)cc1	inactive
COc1ccc(CCNc2c3ccccc3nc3ccccc23)cc1OC	inactive
CN1CCCc2cc(C=O)ccc21	inactive

SMILES	activity change, negative = inhibition
Cc1cc(C)cc(NC(=O)N(C)Cc2ccccc2)c1	inactive
C=CCn1c(O)c(N=NC(=S)Nc2cccc(C)c2)c2ccccc21	inactive
O=C(O)CSc1ncnc2nc[nH]c12	inactive
O=C(O)c1cccc(-n2cccc2/C=C/[N+](=O)[O-])c1	inactive
Cc1cccn2c(=O)c3cc(C(=O)NCCCn4ccnc4)n(C)c3nc12	inactive
COc1c(O)ccc(/C=C(\C#N)c2nc3ccccc3[nH]2)c1[N+](=O)[O-]	inactive
Cc1c(-c2ccc(F)cc2)nc(N)c(C#N)c1-c1ccco1	inactive
O=C(Nc1nccs1)c1ccc(-c2ccc(Cl)cc2)o1	inactive
O=c1[nH]nc(CNc2ccc(OC(F)(F)F)cc2)c2ccccc12	inactive
COc1c(OC2OC(C(=O)O)C(O)C(O)C2O)cc(O)c2c(=O)cc(-c3ccccc3)oc12 (stereo unspecified)	inactive
CCOC(=O)c1c(=O)n(O)c2ccc(OC)cc2[n+]1[O-]	inactive
C=CCc1cccc2cc(C(=O)NNC(=O)CC#N)c(=O)oc12	inactive
COc1ccc(/C=C/C(=O)N/C(=C\c2ccco2)C(=O)NCCc2nc3ccccc3[nH]2)cc1	inactive
Cn1c(O)c(/C=N/NC(=O)c2cc3ccccc3cc2O)c2ccccc21	inactive
CCOC(=O)c1c(-c2ccccc2)oc2ccc(OCC(=O)NNC(=O)CCC(=O)O)cc12	inactive
O=C(N/N=C/c1cc2c(cc1Cl)OCO2)c1ccccn1	inactive
C=CCn1c(O)c(N=NC(=O)CNC(=O)/C=C/c2ccco2)c2ccccc21	inactive
CC(C)C(=O)OCC(=O)Nc1ccc2c(c1)CCC2	inactive
CC1=Nc2cccc3cccc(c23)N1C	inactive
O=C(O)c1cccc(NC(=S)N/N=C/c2c[nH]c3ccccc23)c1	inactive
CCOC(=O)C1CCN(c2nc(N)c3c(N)nc(SCC(=O)O)cc3c2C#N)CC1	inactive

SMILES	activity change, negative = inhibition
Cc1ccc2oc(=O)c(/C=C(\O)c3ccco3)nc2c1	inactive
COc1cc2c(cc1OC)-c1c(OC)c(OC)cc3c1C(C2)N(C)CC3 (stereo unspecified)	inactive
Nc1ccc(Cc2ccc(N)c(C(=O)O)c2)cc1C(=O)O	inactive
O=C(O)Cn1c(O)c(C2=c3ccccc3=NC2=O)sc1=O	inactive
COCC(C)N1CCC(Oc2cccc(C(=O)NCCc3ccccc3)c2)CC1 (stereo unspecified)	inactive
Cc1nc2ccc(NC(=O)NC(=O)c3c(Cl)cccc3Cl)cc2o1	inactive
CCOc1c(O)ccc(/C=C2\SC(=S)NC2=O)c1[N+](=O)[O-]	inactive
COc1cccc(NC2=C(NCCO)C(=O)c3ccccc3C2=O)c1	inactive
CC1=NN2C(=N)/C(=C\c3ccc(SCc4ccccc4)o3)C(=O)N=C2S1	inactive
CC(C)CNC(=O)c1ccccc1Oc1ccccc1	inactive
COc1cc(/C=C2\CCCc3c2nc2ccccc2c3C(=O)O)cc(OC)c1O	inactive
COc1cccc(OCC(=O)NNC(=O)c2cnccn2)c1	inactive
COc1ccccc1NCc1cc(=O)oc2c(C)c(O)ccc12	inactive
CCOC(=O)N1CCN(c2nc3ccccc3nc2C(C#N)C(=O)NCCc2ccccc2)CC1 (stereo unspecified)	inactive
Cc1cccc2c(N=Nc3ccccc3)c(O)[nH]c12	inactive
CCC(COC(C)=O)Nc1nc2c([nH]1)c(=O)n(C)c(=O)n2C (stereo unspecified)	inactive
CCOC(=O)c1cnc(SCC(=O)NNC(=O)c2ccco2)nc1N	inactive
COC(=O)c1ccc(CC(=O)c2ccc(O)cc2O)o1	inactive
COc1cc(C=C2C(=O)c3ccccc3C2=O)cc(OC)c1OC	inactive
CN1CN(C)c2cccc3cccc1c23	inactive
C#CCN1C(=O)S/C(=C\c2ccc(N3CCOCC3)cc2C)C1=O	inactive

SMILES	activity change, negative = inhibition
COC(=O)C1CSc2[nH]c(=O)sc2C1c1ccc(O)c(OC)c1 (stereo unspecified)	inactive
COCCN1CCC(CNCc2cn(-c3cc(C)ccc3C)nc2-c2ccccc2)C1 (stereo unspecified)	inactive
Cc1cc(C)c2ccc(C(=O)O)nc2c1O	inactive
Cc1ccc(N=Nc2c(O)n(CN3CCOCC3)c3ccccc23)cc1	inactive
O=c1[nH]c(=O)n(Cc2ccccc2)c(O)c1/C=C1\C=Nc2ccccc21	inactive
O=C(Nc1ccc(S(=O)(=O)Nc2nccs2)cc1)c1ccc(N2C(=O)c3ccccc3C2=O)cc1	inactive
O=C(O)c1cc(-c2ccco2)nc2cc3ccccc3cc12	inactive
CSCCCN1CCC(n2nccc2NC(=O)CCCc2ccccc2)CC1	inactive
CCc1cccc2cc3c(N)c(C(=O)Nc4ccc(S(=O)(=O)N5CCCC5)cc4)sc3nc12	inactive
N#CC(C(=O)NC1CC1)c1nc2ccccc2nc1N1CCN(C/C=C/c2ccccc2)CC1 (stereo unspecified)	inactive
COC(=O)COc1ccc(C2Nc3c(Cl)ccc(C(=O)O)c3C3C=CCC32)cc1 (stereo unspecified)	inactive
CCNC(=S)NNC(=O)c1ccccn1	inactive
CCc1nnc(NS(=O)(=O)c2ccc(N=Cc3c(O)n(-c4ccc(Cl)cc4)c(=O)[nH]c3=O)cc2)s1	inactive
O=c1cc(-c2ccccc2Cl)oc2c(NS(=O)(=O)c3ccccc3OC(F)(F)F)ccc(O)c12	inactive
Cc1c(Br)c(=O)oc2c(Br)c(O)c(O)cc12	inactive
Cc1nc2c3ccccc3nc(NNC(=O)CCC(=O)N3CCC(C)CC3)n2n1	inactive
CCCCN(CCCC)CCNC(=O)CNC(=O)c1cccs1	inactive
CCOC(=O)C(=NC(C)C)NNc1cc(Cl)ccc1Cl	inactive
COc1ccc2cc(/C=C3\SC(=S)NC3=O)c(N3CCOCC3)nc2c1	inactive
